The structures appear in SMILES notation.

In assay [1] the target is T1, P2X4 (Homo sapiens, UniProt Q99571).
T1 sequence (Q99571 1-388): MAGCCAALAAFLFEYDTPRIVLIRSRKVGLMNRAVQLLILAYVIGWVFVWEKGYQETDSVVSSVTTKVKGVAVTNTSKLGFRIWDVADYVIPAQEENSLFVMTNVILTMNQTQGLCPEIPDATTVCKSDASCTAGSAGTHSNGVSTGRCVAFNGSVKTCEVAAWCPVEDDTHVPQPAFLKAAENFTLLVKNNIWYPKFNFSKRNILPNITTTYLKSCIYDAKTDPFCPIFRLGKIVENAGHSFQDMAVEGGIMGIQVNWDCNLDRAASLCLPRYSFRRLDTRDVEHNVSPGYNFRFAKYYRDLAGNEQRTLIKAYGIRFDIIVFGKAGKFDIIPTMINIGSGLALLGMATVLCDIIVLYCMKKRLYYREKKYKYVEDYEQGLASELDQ
Nature of the assay: Assay B: human P2X4 receptor cell line, mitochondrial photina luminescence (agonist Bz-ATP at EC50). The format is cell-based. More on the design: host or cells: HEK 293 (recombinant, constitutively expressing; with mitochondrial photina in Assay B). As to conditions: HEK human P2X4 cell line, photina luminescence, agonist Bz-ATP at EC50, average; for Emax: read-out: human P2X4 Assay B avg Efficacy. In a few lines:
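Bz-ATP at its EC50 activates human P2X4 stably expressed in a cell line that also carries the calcium-sensitive photoprotein mitochondrial photina (coelenterazine cofactor). Light emitted on calcium influx is measured straight away in a luminometer. Reduced luminescence indicates antagonism.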

Assay [2] deals with T1, P2X4. Nature of the assay: Assay A: human P2X4 receptor cell line, FLIPR calcium assay (Fluo-8, agonist Bz-ATP at EC80). The format is cell-based. More on the design: host or cells: HEK 293 (recombinant, constitutively expressing; with mitochondrial photina in Assay B). As to conditions: HEK human P2X4 cells, Fluo-8 FLIPR; for IC50: Bz-ATP at EC80, average values; for Emax: percentage of maximal inhibition, read-out: human P2X4 Assay A avg Efficacy. Here is the method: A fluorescent imaging plate reader (FLEX/FLIPR station; Molecular Devices) was used to monitor intracellular calcium levels using the calcium-chelating dye Fluo-8 (Molecular Probes). […] Cells expressing purinergic receptors human P2X4 (HEK human P2X4: PerkinElmer, Product No.: AX-015-PCF) were plated at a density of 20,000 cells/well in poly-D-lysine-coated 384-well plates approximately 20 hours before beginning the assay. On the day of the assay, the medium was removed and 30 μl of dye buffer (Hank's balanced salt solution, 10 mM HEPES, 1.8 mM CaCl2), 1 mM MgCl2, 2 mM probenecid, 5 mM D-glucose monohydrate, 5 μM Fluo-8, pH=7.4) was added for 30 min at […] and 5% CO2. The antagonist in probenecid buffer (Hank's balanced salt solution, 10 mM HEPES, 1.8 mM CaCl2, 1 mM MgCl2, 2 mM probenecid, 5 mM D-glucose monohydrate, pH=7.4) was added in a volume of 10 μl and allowed to incubate for 30 min at room temperature. The final assay DMSO concentration is 0.5%. The agonist, Bz-ATP, is added in a volume of 10 μl at a concentration representing the EC80 value. The fluorescence was measured for an interval of 120 sec at 2 sec intervals and analyzed based on the increase in peak relative fluorescence units (RFU) compared to the basal fluorescence. Peak fluorescence was used to determine the response to agonist obtained at each concentration of antagonist by the following equation:
% Response=100*(RFU(drug)−RFU(control))/(RFU(DMSO)−RFU(control))
The compounds were tested in triplicates per plate and mean values were plotted in Excel XLFit to determine IC50 values, percentage of maximal inhibition and the Hill coefficients.

Regarding `CC(Oc1ccc(NC(=O)Cc2ccccc2Cl)cc1S(N)(=O)=O)c1ccccc1` (single isomer, unassigned) [Example 148A, 2-(2-Chlorophenyl)-N-[4-(1-phenylethoxy)-3-sulfamoylphenyl]acetamide], the IC50 (as a rule, the concentration needed to halve the response being measured) came to 143 nM in assay [1] and 74 nM in assay [2]. The figures for the Emax in assay [1] and in assay [2] were 68% and 92%, respectively.
For the compound `CN(C)c1cccc(Oc2ccc(NC(=O)Cc3ccccc3Cl)cc2S(N)(=O)=O)c1` [Example 002, 2-(2-Chlorophenyl)-N-{4-[3-(dimethylamino)phenoxy]-3-sulfamoylphenyl}acetamide], in assay [1], the IC50 is 79 nM and the Emax came out at 81%. Also, in assay [2], the IC50 came out at 29 nM and the Emax was 96%.
Consider `CC(C)c1cccc(Oc2ccc(NC(=O)Cc3ccccc3Cl)cc2S(N)(=O)=O)c1` [Example 004, 2-(2-Chlorophenyl)-N-[4-(3-isopropylphenoxy)-3-sulfamoylphenyl]acetamide], for which, in assay [1], the IC50 came to 95 nM and the Emax turned out to be 68%. For the same compound, in assay [2], the half-maximal inhibitory concentration (IC50) was 149 nM and the Emax was 90%.
For `NS(=O)(=O)c1cc(NC(=O)Cc2ccccc2Cl)ccc1Oc1cccc(C(F)(F)F)c1` [Example 005, 2-(2-Chlorophenyl)-N-{3-sulfamoyl-4-[3-(trifluoromethyl)phenoxy]phenyl}acetamide] the same measures were 90 nM, 89%, 77 nM and 94%.
On to `NS(=O)(=O)c1cc(NC(=O)Cc2ccccc2Cl)ccc1Oc1cccc(OC(F)(F)F)c1` [Example 006, 2-(2-Chlorophenyl)-N-{3-sulfamoyl-4-[3-(trifluoromethoxy)phenoxy]phenyl}acetamide], for which the IC50 in assay [1] came out at 73 nM; in assay [2], 99 nM. Moreover, the results for the Emax in assay [1] and in assay [2] were 108% and 87%, respectively.
As for `CC(=O)c1cccc(Oc2ccc(NC(=O)Cc3ccccc3Cl)cc2S(N)(=O)=O)c1` [Example 007, N-[4-(3-Acetylphenoxy)-3-sulfamoylphenyl]-2-(2-chlorophenyl)acetamide], in assay [1], the IC50 came out at 122 nM and the Emax was determined as 104%. Further, in assay [2], the IC50 was 16 nM and the Emax came to 93%.
As to `NS(=O)(=O)c1cc(NC(=O)Cc2ccccc2Cl)ccc1Oc1ccc2c(c1)OCO2` [Example 008, N-[4-(1,3-Benzodioxol-5-yloxy)-3-sulfamoylphenyl]-2-(2-chlorophenyl)acetamide], the IC50 in assay [1] is 73 nM; in assay [2], 44 nM. In addition, the Emax in assay [1] worked out at 91%; in assay [2] it was 88%.
Consider `NS(=O)(=O)c1cc(NC(=O)Cc2ccccc2Cl)ccc1Oc1ccccc1F` [Example 010, 2-(2-Chlorophenyl)-N-[4-(2-fluorophenoxy)-3-sulfamoylphenyl]acetamide], for which, in assay [1], the IC50 amounted to 73 nM and the Emax worked out at 76%. Further, in assay [2], the IC50 stood at 27 nM and the Emax came out at 90%.
In the case of `NS(=O)(=O)c1cc(NC(=O)Cc2ccccc2Cl)ccc1Oc1cccc(F)c1` [Example 011, 2-(2-Chlorophenyl)-N-[4-(3-fluorophenoxy)-3-sulfamoylphenyl]acetamide], the results for the IC50 in assay [1] and in assay [2] were 43 nM and 41 nM, respectively. Besides, the results for the Emax in assay [1] and in assay [2] were 67% and 85%, respectively.
Consider `CS(=O)(=O)c1cccc(Oc2ccc(NC(=O)Cc3ccccc3Cl)cc2S(N)(=O)=O)c1` [Example 016, 2-(2-Chlorophenyl)-N-{4-[3-(methylsulfonyl)phenoxy]-3-sulfamoylphenyl}acetamide], for which the IC50 in assay [1] was found to be 112 nM; in assay [2], 96 nM. Further, the Emax is 72% in assay [1] and 81% in assay [2].
Take `Cc1cccc(Oc2ccc(NC(=O)Cc3ccccc3Cl)cc2S(N)(=O)=O)c1` [Example 018, 2-(2-Chlorophenyl)-N-[4-(3-methylphenoxy)-3-sulfamoylphenyl]acetamide]: in assay [1], the IC50 was determined as 47 nM and the Emax was 70%. Besides, in assay [2], the IC50 was found to be 9 nM and the Emax was determined as 93%.
Consider `NS(=O)(=O)c1cc(NC(=O)Cc2ccccc2Cl)ccc1Oc1cccc(-n2cnnc2)c1` [Example 020, 2-(2-Chlorophenyl)-N-{3-sulfamoyl-4-[3-(4H-1,2,4-triazol-4-yl)phenoxy]phenyl}acetamide], for which the results for the Emax in assay [1] and in assay [2] were 96% and 90%, respectively.
`COc1cccc(Oc2ccc(NC(=O)Cc3ccccc3Cl)cc2S(N)(=O)=O)c1` [Example 022, 2-(2-Chlorophenyl)-N-[4-(3-methoxyphenoxy)-3-sulfamoylphenyl]acetamide]: the values for the Emax in assay [1] and in assay [2] were 54% and 87%, respectively.
`NS(=O)(=O)c1cc(NC(=O)Cc2ccccc2Cl)ccc1Oc1cccc(OC(F)F)c1` [Example 024, 2-(2-Chlorophenyl)-N-{4-[3-(difluoromethoxy)phenoxy]-3-sulfamoylphenyl}acetamide]: in assay [1], the IC50 came to 32 nM and the Emax was 57%. In assay [2], the IC50 turned out to be 114 nM and the Emax was found to be 82%.
As for `NS(=O)(=O)c1cc(NC(=O)Cc2ccccc2Cl)ccc1Oc1cccc(N2CCOCC2)c1` [Example 026, 2-(2-Chlorophenyl)-N-{4-[3-(morpholin-4-yl)phenoxy]-3-sulfamoylphenyl}acetamide], in assay [1], the IC50 worked out at 82 nM and the Emax came to 71%. Moreover, in assay [2], the IC50 is 21 nM and the Emax came out at 95%.
Take `NS(=O)(=O)c1cc(NC(=O)Cc2ccccc2Cl)ccc1Oc1cccnc1` [Example 028, 2-(2-Chlorophenyl)-N-[4-(pyridin-3-yloxy)-3-sulfamoylphenyl]acetamide]: the Emax in assay [1] is 79%; in assay [2], 75%.
As to `NS(=O)(=O)c1cc(NC(=O)Cc2ccccc2Cl)ccc1Oc1cccc(C(F)F)c1` [Example 031, 2-(2-Chlorophenyl)-N-{4-[3-(difluoromethyl)phenoxy]-3-sulfamoylphenyl}acetamide], the IC50 worked out at 122 nM in assay [1] and 24 nM in assay [2]. For the same compound, the Emax in assay [1] turned out to be 71%; in assay [2] it was 76%.
For `COc1ccccc1Oc1ccc(NC(=O)Cc2ccccc2Cl)cc1S(N)(=O)=O` [Example 032, 2-(2-Chlorophenyl)-N-[4-(2-methoxyphenoxy)-3-sulfamoylphenyl]acetamide] the same measures were 57 nM, 14 nM, 82% and 100%.
In the same order, the values of `NS(=O)(=O)c1cc(NC(=O)Cc2ccccc2Cl)ccc1Oc1cccc(C(=O)NC2CC2)c1` [Example 037, 3-(4-{[(2-Chlorophenyl)acetyl]amino}-2-sulfamoylphenoxy)-N-cyclopropylbenzamide] are 188 nM, 63 nM, 56% and 70%.
As to `NS(=O)(=O)c1cc(NC(=O)Cc2ccccc2C(F)(F)F)cnc1Oc1cccc(Cl)c1` [Example 294, N-[6-(3-Chlorophenoxy)-5-sulfamoylpyridin-3-yl]-2-[2-(trifluoromethyl)phenyl]-acetamide], in assay [2], the IC50 stood at 107 nM and the Emax amounted to 84%.
Turning to `NS(=O)(=O)c1cc(NC(=O)Cc2ccccc2C(F)F)cnc1Oc1cccc(Cl)c1` [Example 295, N-[6-(3-Chlorophenoxy)-5-sulfamoylpyridin-3-yl]-2-[2-(difluoromethyl)phenyl]-acetamide], in assay [2], the IC50 worked out at 155 nM and the Emax came to 85%.
On to `NS(=O)(=O)c1cc(NC(=O)Cc2cc(F)ccc2Cl)cnc1Oc1cccc(Cl)c1` [Example 296, 2-(2-Chloro-5-fluorophenyl)-N-[6-(3-chlorophenoxy)-5-sulfamoylpyridin-3-yl]-acetamide], for which, in assay [2], the IC50 was found to be 59 nM and the Emax was 78%.

Values taken from patent US20180338980A1, “AROMATIC SULFONAMIDE DERIVATIVES” (BAYER PHARMA AKTIENGESELLSCHAFT, priority 2015, published 2018).
